In ChEMBL document CHEMBL5032504, “Discovery and Optimization of a Novel 2H-Pyrazolo[3,4-d]pyrimidine Derivative as a Potent Irreversible Pan-Fibroblast Growth Factor Receptor Inhibitor” (J Med Chem, 2021):

What was measured:
in vivo [1] = settings: Sprague-Dawley, rat, po, 5 mg/kg
Description: MRT in Sprague-Dawley rat at 5 mg/kg, po administered as single dose measured up to 8 hrs by LC/MS-MS analysis

[2] = target: Tyrosine-protein kinase ABL1 (Homo sapiens) (UniProt P00519); settings: dose 1000.0 nM
Description: Inhibition of ABL1 (unknown origin) at 1000 nM relative to control

SNU-16 [3] = assay: animal or person; assay type: functional; settings: Mus musculus, SNU-16, po, 960 h, time 40 day, read-out: TGI
Description: Antitumor activity against human SNU-16 cells xenografted in BALB/c mouse assessed as tumor growth inhibition at 50 mg/kg, po administered once daily for 40 days relative to control

[4] = target: Platelet-derived growth factor receptor alpha (Homo sapiens) (UniProt P16234); settings: dose 1000.0 nM
Description: Inhibition of PDGFRA (unknown origin) at 1000 nM relative to control

[5] = target: Serine/threonine-protein kinase PAK 3 (Homo sapiens) (UniProt O75914); settings: dose 1000.0 nM
Description: Inhibition of PAK3 (unknown origin) at 1000 nM relative to control

[6] = target: Tyrosine-protein kinase receptor UFO (Homo sapiens) (UniProt P30530); settings: dose 1000.0 nM
Tyrosine-protein kinase receptor UFO (Homo sapiens), sequence (P30530 whole entry): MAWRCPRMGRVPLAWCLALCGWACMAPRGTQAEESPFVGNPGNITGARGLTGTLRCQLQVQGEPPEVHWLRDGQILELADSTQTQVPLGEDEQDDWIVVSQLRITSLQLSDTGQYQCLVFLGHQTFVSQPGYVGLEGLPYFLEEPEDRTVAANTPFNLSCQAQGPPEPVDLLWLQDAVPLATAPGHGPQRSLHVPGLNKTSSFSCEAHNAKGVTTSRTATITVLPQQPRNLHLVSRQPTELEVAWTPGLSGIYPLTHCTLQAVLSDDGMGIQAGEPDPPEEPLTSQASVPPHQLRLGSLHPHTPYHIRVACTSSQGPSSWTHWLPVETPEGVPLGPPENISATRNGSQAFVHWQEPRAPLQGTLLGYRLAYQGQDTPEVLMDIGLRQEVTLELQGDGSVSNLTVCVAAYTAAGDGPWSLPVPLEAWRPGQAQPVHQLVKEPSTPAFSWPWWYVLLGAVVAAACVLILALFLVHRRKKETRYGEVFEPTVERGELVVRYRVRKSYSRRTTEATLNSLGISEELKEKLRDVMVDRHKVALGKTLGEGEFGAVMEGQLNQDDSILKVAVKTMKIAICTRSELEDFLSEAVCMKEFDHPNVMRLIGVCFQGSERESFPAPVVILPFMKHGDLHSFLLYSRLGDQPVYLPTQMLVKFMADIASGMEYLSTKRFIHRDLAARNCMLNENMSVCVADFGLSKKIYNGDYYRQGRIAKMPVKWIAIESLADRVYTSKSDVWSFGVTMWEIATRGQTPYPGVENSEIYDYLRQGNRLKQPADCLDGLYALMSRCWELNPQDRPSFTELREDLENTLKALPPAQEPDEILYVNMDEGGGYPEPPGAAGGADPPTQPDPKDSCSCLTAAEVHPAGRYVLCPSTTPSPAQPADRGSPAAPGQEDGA
Description: Inhibition of AXL (unknown origin) at 1000 nM relative to control

[7] = target: Casein kinase II subunit alpha (Homo sapiens) (UniProt P68400); settings: dose 1000.0 nM
Description: Inhibition of CK2alpha1 (unknown origin) at 1000 nM relative to control

[8] = target: Voltage-gated inwardly rectifying potassium channel KCNH2 (Homo sapiens, UniProt Q12809)
Description: Binding affinity to human ERG

[9] = target: Maternal embryonic leucine zipper kinase (Homo sapiens) (UniProt Q14680); settings: dose 1000.0 nM
Description: Inhibition of MELK (unknown origin) at 1000 nM relative to control

[10] = target: Calcium/calmodulin-dependent protein kinase type II subunit alpha (Homo sapiens) (UniProt Q9UQM7); settings: dose 1000.0 nM
Description: Inhibition of CAMK2 alpha (unknown origin) at 1000 nM relative to control

[11] = target: Rho-associated protein kinase 1 (Homo sapiens) (UniProt Q13464); settings: dose 1000.0 nM
Description: Inhibition of ROCK1 (unknown origin) at 1000 nM relative to control

NCI-H1581 [12] = assay: animal or person; assay type: functional; settings: Mus musculus, NCI-H1581, po, 624 h, time 26 day, read-out: TGI
Description: Antitumor activity against human NCI-H1581 cells xenografted in BALB/c mouse assessed as tumor growth inhibition at 50 mg/kg, po administered once daily for 26 days relative to control

[13] = target: ALK tyrosine kinase receptor (Homo sapiens) (UniProt Q9UM73); settings: dose 1000.0 nM
Description: Inhibition of ALK (unknown origin) at 1000 nM relative to control

[14] = target: Tyrosine-protein kinase Mer (Homo sapiens) (UniProt Q12866); settings: dose 1000.0 nM
Tyrosine-protein kinase Mer (Homo sapiens), sequence (Q12866 whole entry): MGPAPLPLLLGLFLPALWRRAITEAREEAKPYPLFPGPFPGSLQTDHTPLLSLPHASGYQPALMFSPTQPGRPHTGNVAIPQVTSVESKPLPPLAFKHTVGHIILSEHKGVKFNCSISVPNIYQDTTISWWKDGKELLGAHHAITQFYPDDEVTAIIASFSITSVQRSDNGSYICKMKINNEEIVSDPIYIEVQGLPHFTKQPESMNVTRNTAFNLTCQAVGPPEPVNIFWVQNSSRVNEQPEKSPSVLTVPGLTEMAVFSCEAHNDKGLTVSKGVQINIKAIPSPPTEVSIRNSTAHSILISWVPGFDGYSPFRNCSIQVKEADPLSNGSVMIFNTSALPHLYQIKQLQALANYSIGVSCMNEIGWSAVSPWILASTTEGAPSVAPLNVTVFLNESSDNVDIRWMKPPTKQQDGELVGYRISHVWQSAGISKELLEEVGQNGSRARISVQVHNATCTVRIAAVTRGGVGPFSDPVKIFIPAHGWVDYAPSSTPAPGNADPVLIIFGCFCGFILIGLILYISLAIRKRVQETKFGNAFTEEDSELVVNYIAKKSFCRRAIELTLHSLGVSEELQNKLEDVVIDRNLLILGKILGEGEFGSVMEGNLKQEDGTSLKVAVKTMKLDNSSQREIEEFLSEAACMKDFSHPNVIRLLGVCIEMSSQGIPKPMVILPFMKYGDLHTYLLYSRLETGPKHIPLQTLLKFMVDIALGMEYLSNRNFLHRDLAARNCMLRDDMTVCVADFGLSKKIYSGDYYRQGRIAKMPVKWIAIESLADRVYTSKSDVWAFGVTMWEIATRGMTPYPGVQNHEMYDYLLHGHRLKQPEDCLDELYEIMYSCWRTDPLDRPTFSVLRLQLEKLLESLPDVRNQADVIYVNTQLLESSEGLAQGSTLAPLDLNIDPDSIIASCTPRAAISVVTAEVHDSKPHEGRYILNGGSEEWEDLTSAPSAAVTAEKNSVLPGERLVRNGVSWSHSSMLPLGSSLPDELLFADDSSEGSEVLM
Description: Inhibition of c-MER (unknown origin) at 1000 nM relative to control

[15] = target: Mitogen-activated protein kinase 1 (Homo sapiens) (UniProt P28482); settings: dose 1000.0 nM
Mitogen-activated protein kinase 1 (Homo sapiens), sequence (P28482 whole entry): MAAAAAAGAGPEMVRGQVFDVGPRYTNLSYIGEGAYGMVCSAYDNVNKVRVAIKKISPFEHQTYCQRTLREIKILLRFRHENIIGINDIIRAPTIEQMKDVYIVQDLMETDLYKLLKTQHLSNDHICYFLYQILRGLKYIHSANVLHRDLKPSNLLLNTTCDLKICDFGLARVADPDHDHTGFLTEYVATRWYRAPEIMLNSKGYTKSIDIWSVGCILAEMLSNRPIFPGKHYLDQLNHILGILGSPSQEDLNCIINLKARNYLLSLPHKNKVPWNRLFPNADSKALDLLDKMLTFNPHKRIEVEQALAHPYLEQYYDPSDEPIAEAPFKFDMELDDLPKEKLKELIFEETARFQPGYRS
Description: Inhibition of MAPK1 (unknown origin) at 1000 nM relative to control

[16] = target: Serine/threonine-protein kinase pim-1 (Homo sapiens) (UniProt P11309); settings: dose 1000.0 nM
Description: Inhibition of PIM1 (unknown origin) at 1000 nM relative to control

[17] = target: Vascular endothelial growth factor receptor 2 (Homo sapiens) (UniProt P35968); settings: dose 1000.0 nM
Description: Inhibition of VEGFR2(unknown origin) at 1000 nM relative to control

[18] = target: Serine/threonine-protein kinase Chk1 (Homo sapiens) (UniProt O14757); settings: dose 1000.0 nM
Description: Inhibition of CHK1 (unknown origin) at 1000 nM relative to control

Homo sapiens [19] = species: Homo sapiens; settings: dose 1000.0 nM
Description: Inhibition of FYNA (unknown origin) at 1000 nM relative to control

[20] = target: Glycogen synthase kinase-3 alpha (Homo sapiens) (UniProt P49840); settings: dose 1000.0 nM
Glycogen synthase kinase-3 alpha (Homo sapiens), sequence (P49840 2-483 limits assumed): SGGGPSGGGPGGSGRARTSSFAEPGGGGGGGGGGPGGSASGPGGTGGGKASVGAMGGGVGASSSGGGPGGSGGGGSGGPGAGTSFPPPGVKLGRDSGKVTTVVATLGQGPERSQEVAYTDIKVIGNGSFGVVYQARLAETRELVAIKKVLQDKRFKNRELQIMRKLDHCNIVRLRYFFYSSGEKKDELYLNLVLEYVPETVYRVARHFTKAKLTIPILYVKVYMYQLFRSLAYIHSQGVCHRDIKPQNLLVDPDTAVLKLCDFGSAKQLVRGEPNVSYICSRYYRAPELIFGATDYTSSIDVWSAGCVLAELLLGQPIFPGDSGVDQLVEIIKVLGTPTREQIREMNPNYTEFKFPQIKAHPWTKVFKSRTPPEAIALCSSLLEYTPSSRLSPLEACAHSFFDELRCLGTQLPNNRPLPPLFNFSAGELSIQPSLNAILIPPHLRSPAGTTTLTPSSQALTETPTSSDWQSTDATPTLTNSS
Description: Inhibition of GSK3alpha (unknown origin) at 1000 nM relative to control

NCI-H460 = assay: cells; assay type: functional, cell-based; settings: Homo sapiens, NCI-H460, 96 h
in vivo [21] = settings: Sprague-Dawley, rat, iv, 5 mg/kg
Description: MRT in Sprague-Dawley rat at 5 mg/kg, iv administered as single dose measured up to 8 hrs by LC/MS-MS analysis

NCI-H1581 [22] = assay: animal or person; assay type: functional; settings: Mus musculus, NCI-H1581, po, 624 h, time 26 day, read-out: TGI; remark: listed apart in the source
Description: Antitumor activity against human NCI-H1581 cells xenografted in BALB/c mouse assessed as tumor growth inhibition at 100 mg/kg, po administered once daily for 26 days relative to control

[23] = target: TGF-beta receptor type-1 (Homo sapiens) (UniProt P36897); settings: dose 1000.0 nM
Description: Inhibition of TGFBR1 (unknown origin) at 1000 nM relative to control

in vivo [24] = settings: Sprague-Dawley, rat, iv, 5 mg/kg; remark: listed apart in the source
SNU-16 [25] = assay: animal or person; assay type: functional; settings: Mus musculus, SNU-16, po, 960 h, time 40 day, read-out: TGI; remark: listed apart in the source
Description: Antitumor activity against human SNU-16 cells xenografted in BALB/c mouse assessed as tumor growth inhibition at 100 mg/kg, po administered once daily for 40 days relative to control

[26] = target: Proto-oncogene tyrosine-protein kinase receptor Ret (Homo sapiens) (UniProt P07949); settings: dose 1000.0 nM
Description: Inhibition of RET (unknown origin) at 1000 nM relative to control

[27] = target: Discoidin domain-containing receptor 2 (Homo sapiens) (UniProt Q16832); settings: dose 1000.0 nM
Description: Inhibition of DDR2 (unknown origin) at 1000 nM relative to control

[28] = target: Mitogen-activated protein kinase 14 (Homo sapiens) (UniProt Q16539); settings: dose 1000.0 nM
Description: Inhibition of P38alpha (unknown origin) at 1000 nM relative to control

NCI-H1581 [29] = assay: cells; assay type: functional, cell-based; settings: Homo sapiens, NCI-H1581, 96 h
[30] = target: Tyrosine-protein kinase JAK3 (Homo sapiens) (UniProt P52333); settings: dose 1000.0 nM
Description: Inhibition of JAK3 (unknown origin) at 1000 nM relative to control

[31] = target: Glycogen synthase kinase-3 beta (Homo sapiens) (UniProt P49841); settings: dose 1000.0 nM
Description: Inhibition of GSK3beta (unknown origin) at 1000 nM relative to control

[32] = target: Serine/threonine-protein kinase TAO1 (Homo sapiens) (UniProt Q7L7X3); settings: dose 1000.0 nM
Serine/threonine-protein kinase TAO1 (Homo sapiens), sequence (Q7L7X3 whole entry): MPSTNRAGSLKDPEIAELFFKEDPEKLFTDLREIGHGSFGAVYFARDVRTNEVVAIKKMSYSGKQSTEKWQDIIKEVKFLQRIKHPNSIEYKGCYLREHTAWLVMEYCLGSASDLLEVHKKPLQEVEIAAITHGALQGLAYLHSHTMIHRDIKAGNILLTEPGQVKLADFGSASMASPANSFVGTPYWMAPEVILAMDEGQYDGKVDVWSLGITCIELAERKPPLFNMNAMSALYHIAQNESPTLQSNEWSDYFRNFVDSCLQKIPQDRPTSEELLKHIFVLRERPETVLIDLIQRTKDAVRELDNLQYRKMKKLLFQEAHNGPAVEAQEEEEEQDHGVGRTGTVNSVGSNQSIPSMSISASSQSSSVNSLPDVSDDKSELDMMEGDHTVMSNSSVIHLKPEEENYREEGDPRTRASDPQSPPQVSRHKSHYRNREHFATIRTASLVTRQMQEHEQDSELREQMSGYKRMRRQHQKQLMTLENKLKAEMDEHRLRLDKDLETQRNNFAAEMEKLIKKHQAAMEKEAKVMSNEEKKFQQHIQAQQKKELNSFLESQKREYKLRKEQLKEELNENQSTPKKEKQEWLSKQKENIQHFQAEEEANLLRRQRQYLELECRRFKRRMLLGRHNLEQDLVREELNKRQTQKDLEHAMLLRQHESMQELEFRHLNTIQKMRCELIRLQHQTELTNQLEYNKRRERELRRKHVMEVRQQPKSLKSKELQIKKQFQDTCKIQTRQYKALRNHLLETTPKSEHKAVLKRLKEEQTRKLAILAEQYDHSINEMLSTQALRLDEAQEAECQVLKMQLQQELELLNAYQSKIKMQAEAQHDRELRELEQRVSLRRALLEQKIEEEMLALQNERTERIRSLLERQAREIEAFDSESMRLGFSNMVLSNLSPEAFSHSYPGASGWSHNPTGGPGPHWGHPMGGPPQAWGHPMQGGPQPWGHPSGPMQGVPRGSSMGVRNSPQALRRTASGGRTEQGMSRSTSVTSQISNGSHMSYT
Description: Inhibition of TAOK1 (unknown origin) at 1000 nM relative to control

[33] = target: Cyclin-dependent kinase 4 (Homo sapiens) (UniProt P11802); settings: dose 1000.0 nM
Description: Inhibition of CDK4 (unknown origin) at 1000 nM relative to control

[34] = target: Tyrosine-protein kinase CSK (Homo sapiens) (UniProt P41240); settings: dose 1000.0 nM
Description: Inhibition of CSK (unknown origin) at 1000 nM relative to control

[35] = target: Mitogen-activated protein kinase kinase kinase 14 (Homo sapiens) (UniProt Q99558); settings: dose 1000.0 nM
Description: Inhibition of NIK (unknown origin) at 1000 nM relative to control

[36] = target: Mitogen-activated protein kinase kinase kinase 5 (Homo sapiens) (UniProt Q99683); settings: dose 1000.0 nM
Description: Inhibition of ASK1 (unknown origin) at 1000 nM relative to control

[37] = target: Interferon-induced, double-stranded RNA-activated protein kinase (Homo sapiens) (UniProt P19525); settings: dose 1000.0 nM
Description: Inhibition of EIF2AK2 (unknown origin) at 1000 nM relative to control

[38] = target: Hepatocyte growth factor receptor (Homo sapiens) (UniProt P08581); settings: dose 1000.0 nM
Description: Inhibition of MET (unknown origin) at 1000 nM relative to control

in vivo [39] = settings: Sprague-Dawley, rat, po, 5 mg/kg; remark: listed apart in the source
[40] = target: Tyrosine-protein kinase ITK/TSK (Homo sapiens) (UniProt Q08881); settings: dose 1000.0 nM
Description: Inhibition of ITK (unknown origin) at 1000 nM relative to control

SNU-16 [41] = assay: cells; assay type: functional, cell-based; settings: Homo sapiens, SNU-16, 96 h
in vivo [42] = settings: Sprague-Dawley, rat, iv, 5 mg/kg; remark: listed apart in the source
[43] = target: Proto-oncogene tyrosine-protein kinase Src (Homo sapiens) (UniProt P12931); settings: dose 1000.0 nM
Description: Inhibition of SRC (unknown origin) at 1000 nM relative to control

[44] = target: Macrophage-stimulating protein receptor (Homo sapiens) (UniProt Q04912); settings: dose 1000.0 nM
Description: Inhibition of RON (unknown origin) at 1000 nM relative to control

[45] = target: Epidermal growth factor receptor (Homo sapiens) (UniProt P00533); settings: dose 1000.0 nM
Description: Inhibition of EGFR (unknown origin) at 1000 nM relative to control

[46] = target: Interleukin-1 receptor-associated kinase 4 (Homo sapiens) (UniProt Q9NWZ3); settings: dose 1000.0 nM
Description: Inhibition of IRAK4 (unknown origin) at 1000 nM relative to control

in vivo [47] = settings: Sprague-Dawley, rat, iv, 5 mg/kg; remark: listed apart in the source
Description: Initial plasma concentration in Sprague-Dawley rat at 5 mg/kg, iv administered as single dose measured up to 8 hrs by LC/MS-MS analysis

[48] = target: Receptor-type tyrosine-protein kinase FLT3 (Homo sapiens) (UniProt P36888); settings: dose 1000.0 nM
Description: Inhibition of FLT3 (unknown origin) at 1000 nM relative to control

[49] = target: Serine/threonine-protein kinase TBK1 (Homo sapiens) (UniProt Q9UHD2); settings: dose 1000.0 nM
Serine/threonine-protein kinase TBK1 (Homo sapiens), sequence (Q9UHD2 whole entry): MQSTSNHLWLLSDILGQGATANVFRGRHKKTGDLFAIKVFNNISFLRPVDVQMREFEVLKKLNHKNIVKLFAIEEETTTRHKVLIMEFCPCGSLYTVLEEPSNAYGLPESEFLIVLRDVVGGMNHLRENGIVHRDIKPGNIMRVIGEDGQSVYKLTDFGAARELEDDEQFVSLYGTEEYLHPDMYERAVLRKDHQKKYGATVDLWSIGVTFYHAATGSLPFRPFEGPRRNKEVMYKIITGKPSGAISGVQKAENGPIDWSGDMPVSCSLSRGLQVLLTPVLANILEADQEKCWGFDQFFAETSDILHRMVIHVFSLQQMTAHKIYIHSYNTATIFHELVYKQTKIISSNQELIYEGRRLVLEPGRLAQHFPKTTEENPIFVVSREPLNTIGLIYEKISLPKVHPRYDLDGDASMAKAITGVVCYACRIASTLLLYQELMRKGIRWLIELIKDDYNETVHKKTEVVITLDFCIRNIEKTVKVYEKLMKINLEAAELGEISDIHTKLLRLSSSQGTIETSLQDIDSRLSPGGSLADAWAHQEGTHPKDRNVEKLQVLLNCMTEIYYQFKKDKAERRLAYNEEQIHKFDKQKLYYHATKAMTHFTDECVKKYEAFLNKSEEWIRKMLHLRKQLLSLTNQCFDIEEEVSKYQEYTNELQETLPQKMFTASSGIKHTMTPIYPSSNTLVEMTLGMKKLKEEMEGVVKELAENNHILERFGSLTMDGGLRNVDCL
Description: Inhibition of TBK1 (unknown origin) at 1000 nM relative to control

Homo sapiens [50] = species: Homo sapiens; settings: dose 1000.0 nM; remark: listed apart in the source
Description: Inhibition of PKA (unknown origin) at 1000 nM relative to control

[51] = target: Serine/threonine-protein kinase B-raf (Homo sapiens) (UniProt P15056); settings: dose 1000.0 nM
Description: Inhibition of BRAF (unknown origin) at 1000 nM relative to control

[52] = target: Tyrosine-protein kinase Lck (Homo sapiens) (UniProt P06239); settings: dose 1000.0 nM
Description: Inhibition of LCK (unknown origin) at 1000 nM relative to control

[53] = target: Aurora kinase A (Homo sapiens) (UniProt O14965); settings: dose 1000.0 nM
Aurora kinase A (Homo sapiens), sequence (O14965 whole entry): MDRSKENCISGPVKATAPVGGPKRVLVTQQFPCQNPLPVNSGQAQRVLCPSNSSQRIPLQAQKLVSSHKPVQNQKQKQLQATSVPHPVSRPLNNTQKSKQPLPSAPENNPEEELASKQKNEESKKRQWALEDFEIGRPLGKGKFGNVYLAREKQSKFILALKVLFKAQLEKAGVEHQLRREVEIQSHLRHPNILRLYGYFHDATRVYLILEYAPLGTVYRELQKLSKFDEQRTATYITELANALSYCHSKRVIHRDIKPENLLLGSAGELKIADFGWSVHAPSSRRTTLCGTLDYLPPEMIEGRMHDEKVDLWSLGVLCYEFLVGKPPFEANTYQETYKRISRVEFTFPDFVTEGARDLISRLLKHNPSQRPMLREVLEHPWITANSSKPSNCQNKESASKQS
Description: Inhibition of AURORA kinase A (unknown origin) at 1000 nM relative to control

in vivo [54] = settings: Sprague-Dawley, rat, po, 5 mg/kg; remark: listed apart in the source
Description: Half life in Sprague-Dawley rat plasma at 5 mg/kg, po administered as single dose measured up to 8 hrs by LC/MS-MS analysis

[55] = target: Receptor tyrosine-protein kinase erbB-2 (Homo sapiens) (UniProt P04626); settings: dose 1000.0 nM
Description: Inhibition of HER2 (unknown origin) at 1000 nM relative to control

in vivo [56] = settings: Sprague-Dawley, rat, po, 5 mg/kg; remark: listed apart in the source
Description: Clearance in Sprague-Dawley rat at 5 mg/kg, po administered as single dose measured up to 8 hrs by LC/MS-MS analysis

[57] = target: Serine/threonine-protein kinase Nek2 (Homo sapiens) (UniProt P51955); settings: dose 1000.0 nM
Description: Inhibition of NEK2 (unknown origin) at 1000 nM relative to control

[58] = target: Serine/threonine-protein kinase Nek3 (Homo sapiens) (UniProt P51956); settings: dose 1000.0 nM
Description: Inhibition of NEK3 (unknown origin) at 1000 nM relative to control

[59] = target: Focal adhesion kinase 1 (Homo sapiens) (UniProt Q05397); settings: dose 1000.0 nM
Description: Inhibition of FAK (unknown origin) at 1000 nM relative to control

[60] = target: Mitogen-activated protein kinase 8 (Homo sapiens) (UniProt P45983); settings: dose 1000.0 nM
Description: Inhibition of JNK1 (unknown origin) at 1000 nM relative to control

[61] = target: RAC-gamma serine/threonine-protein kinase (Homo sapiens) (UniProt Q9Y243); settings: dose 1000.0 nM
Description: Inhibition of AKT3 (unknown origin) at 1000 nM relative to control

in vivo [62] = settings: Sprague-Dawley, rat, po, 5 mg/kg; remark: listed apart in the source
[63] = target: Tyrosine-protein kinase BTK (Homo sapiens) (UniProt Q06187); settings: dose 1000.0 nM
Description: Inhibition of BTK (unknown origin) at 1000 nM relative to control

[64] = target: Dual specificity protein kinase CLK1 (Homo sapiens) (UniProt P49759); settings: dose 1000.0 nM
Description: Inhibition of CLK1 (unknown origin) at 1000 nM relative to control

Huh-7 = assay: cells; assay type: functional, cell-based; settings: Homo sapiens, Huh-7, 96 h
SK-HEP1 = assay: cells; assay type: functional, cell-based; settings: Homo sapiens, SK-HEP1, 96 h

SMILES: COc1cc(OC)cc(-c2nn(CCCCCN3CCN(C(=O)/C=C/C(F)(F)F)CC3)c3ncnc(N)c23)c1
- MRT at 8 h (in vivo [1]): 19.1 min
- inhibition [2]: 14%
- inhibition in vivo at 50 mg/kg (SNU-16 [3]): 67.9%
- inhibition [4]: 42%
- inhibition [5]: 9%
- inhibition [6]: 0%
- inhibition [7]: 0%
- IC50 [8]: 3210 nM
- inhibition [9]: 0%
- inhibition [10]: 0%
- inhibition [11]: 12%
- inhibition in vivo at 50 mg/kg (NCI-H1581 [12]): 69.5%
- inhibition [13]: 0%
- inhibition [14]: 9%
- inhibition [15]: 4%
- inhibition [16]: 0%
- inhibition [17]: 7%
- inhibition [18]: 2%
- inhibition (Homo sapiens [19]): 0%
- inhibition [20]: 0%
- IC50 (NCI-H460): > 10000 nM
- MRT at 8 h (in vivo [21]): 60.5 min
- inhibition in vivo at 100 mg/kg (NCI-H1581 [22]): 88.6%
- inhibition [23]: 8%
- AUC at 8 h (in vivo [24]): 0.309 ng·h/mL
- inhibition in vivo at 100 mg/kg (SNU-16 [25]): 89.4%
- inhibition [26]: 24%
- inhibition [27]: 21%
- inhibition [28]: 3%
- IC50 (NCI-H1581 [29]): 16 nM
- inhibition [30]: 11%
- inhibition [31]: 0%
- inhibition [32]: 0%
- inhibition [33]: 3%
- inhibition [34]: 0%
- inhibition [35]: 0%
- inhibition [36]: 0%
- inhibition [37]: 27%
- inhibition [38]: 1%
- Tmax at 8 h (in vivo [39]): 8.34 min
- inhibition [40]: 35%
- IC50 (SNU-16 [41]): 6 nM
- Tmax at 8 h (in vivo [42]): 4.98 min
- inhibition [43]: 83%
- inhibition [44]: 4%
- inhibition [45]: 2%
- inhibition [46]: 0%
- C0 at 8 h (in vivo [47]): 0.519 ng/mL
- inhibition [48]: 1%
- inhibition [49]: 1%
- inhibition (Homo sapiens [50]): 0%
- inhibition [51]: 2%
- inhibition [52]: 23%
- inhibition [53]: 1%
- half-life at 8 h (in vivo [54]): 16.8 min
- inhibition [55]: 3%
- CL/F at 8 h (in vivo [56]): 280000 mL/min
- inhibition [57]: 0%
- inhibition [58]: 1%
- inhibition [59]: 17%
- inhibition [60]: 2%
- inhibition [61]: 6%
- bioavailability at 8 h (in vivo [62]): 24.9%
- inhibition [63]: 0%
- inhibition [64]: 0%

SMILES: COc1cc(CCc2cc(NC(=O)c3ccc(N4C[C@@H](C)N[C@@H](C)C4)cc3)n[nH]2)cc(OC)c1 [FEXAGRATINIB]
- IC50 (NCI-H460): > 10000 nM
- IC50 (NCI-H1581 [29]): 24 nM
- IC50 (Huh-7): > 10000 nM
- IC50 (SNU-16 [41]): 6 nM
- IC50 (SK-HEP1): 2780 nM
